Drawing on BindingDB's records for doi:10.1016/j.bioorg.2016.07.006 (Dumlupinar University, 2016), this text covers Ki for twelve compounds.

The target in one assay is Carbonic anhydrase 2 (Homo sapiens, UniProt P00918). The assay can be described thus: In vitro Carbonic Anhydrase Inhibition Assay. Here is the method: (§1) CA activity was measured according to the method described by Verpoorte et al. in inhibition studies, spectrophotometrically [Biochem., 242:4221-4229]. The reaction mixture contains 50 mM Tris-SO4 buffer (pH = 7.4), 3 mM 4-nitrophenylacetate and enzyme solution in 1 ml total volume. A reference measurement was done by using the same cuvette without enzyme solution. The measurement was repeated in triplicate at each concentration of 5-amino-1,3,4-thiadiazole-2-sulfonamide containing pyrazole derivatives.

In the next assay the target is Carbonic anhydrase 1 (Homo sapiens, UniProt P00915). Description: In vitro Carbonic Anhydrase Inhibition Assay. Here is the method: as §1
Carbonic anhydrase 1, sequence (P00915 whole entry): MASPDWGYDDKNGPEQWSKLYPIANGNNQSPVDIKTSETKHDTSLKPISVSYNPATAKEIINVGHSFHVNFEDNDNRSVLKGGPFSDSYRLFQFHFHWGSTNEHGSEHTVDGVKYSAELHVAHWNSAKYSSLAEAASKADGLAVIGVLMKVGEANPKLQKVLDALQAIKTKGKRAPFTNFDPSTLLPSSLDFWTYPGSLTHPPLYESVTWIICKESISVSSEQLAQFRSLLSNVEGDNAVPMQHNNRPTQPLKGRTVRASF

In general, Ki refers to the equilibrium dissociation constant of an inhibitor or competing ligand from its target. High values mean lower affinity, low ones higher affinity.

With `NS(=O)(=O)c1nnc(NC(=O)c2nn(-c3cccc(NN=C4C(=O)CCCC4=O)c3)c(-c3ccccc3)c2C(=O)Nc2nnc(S(N)(=O)=O)s2)s1` [1-(3-((2-Hydroxy-6-oxocyclohex-1-en-1-yl)diazenyl)phenyl)-5-phenyl-N3,N4-bis(5-sulfamoyl-1,3,4-thiadiazol-2-yl)-1H-pyrazole-3,4-dicarboxamide (13)], the Ki at Carbonic anhydrase 2 turned out to be 157 nM; on Carbonic anhydrase 1, 508 nM.
Turning to `CC(=O)/C(=N/Nc1cccc(-n2nc(C(=O)Nc3nnc(S(N)(=O)=O)s3)c(C(=O)Nc3nnc(S(N)(=O)=O)s3)c2-c2ccccc2)c1)C(=O)c1ccccc1` [1-(3-(2-(1,3-Dioxo-1-phenylbutan-2-ylidene)hydrazinyl)phenyl)-5-phenyl-N3,N4-bis(5-sulfamoyl-1,3,4-thiadiazol-2-yl)-1H-pyrazole-3,4-dicarboxamide (6)], the Ki on Carbonic anhydrase 2 and on Carbonic anhydrase 1 was 119 nM each time.
`CC(=O)C(=NNc1cccc(-n2nc(C(=O)Nc3nnc(S(N)(=O)=O)s3)c(C(=O)Nc3nnc(S(N)(=O)=O)s3)c2-c2ccccc2)c1)C(C)=O` [1-(3-(2-(2,4-Dioxopentan-3-ylidene)hydrazinyl)phenyl)-5-phenyl-N3,N4-bis(5-sulfamoyl-1,3,4-thiadiazol-2-yl)-1H-pyrazole-3,4-dicarboxamide (5)]: the Ki at Carbonic anhydrase 2 was 494 nM; at Carbonic anhydrase 1, 767 nM.
Regarding `CCOC(=O)C(=NNc1cccc(-n2nc(C(=O)Nc3nnc(S(N)(=O)=O)s3)c(C(=O)Nc3nnc(S(N)(=O)=O)s3)c2-c2ccccc2)c1)C(=O)OCC` [Diethyl 2-(2-(3-(5-phenyl-3,4-bis((5-sulfamoyl-1,3,4-thiadiazol-2-yl)carbamoyl)-1H-pyrazol-1-yl)phenyl)hydrazono)malonate (10)], the figures for the Ki on Carbonic anhydrase 2 and on Carbonic anhydrase 1 were 203 nM and 461 nM, respectively.
Turning to `CC(=O)/C(=N/Nc1cccc(-n2nc(C(=O)Nc3nnc(S(N)(=O)=O)s3)c(C(=O)Nc3nnc(S(N)(=O)=O)s3)c2-c2ccccc2)c1)C(=O)OC(C)(C)C` [tert-Butyl 3-oxo-2-(2-(3-(5-phenyl-3,4-bis((5-sulfamoyl-1,3,4-thiadiazol-2-yl)carbamoyl)-1H-pyrazol-1-yl)phenyl)hydrazono)butanoate (12)], the results for the Ki on Carbonic anhydrase 2 and at Carbonic anhydrase 1 were 149 nM and 522 nM, respectively.
As for `CCOC(=O)/C(=N\Nc1cccc(-n2nc(C(=O)Nc3nnc(S(N)(=O)=O)s3)c(C(=O)Nc3nnc(S(N)(=O)=O)s3)c2-c2ccccc2)c1)C(=O)c1ccccc1` [Ethyl 3-oxo-3-phenyl-2-(2-(3-(5-phenyl-3,4-bis((5-sulfamoyl-1,3,4-thiadiazol-2-yl)carbamoyl)-1H-pyrazol-1-yl)phenyl)hydrazono)propanoate (9)], the values for the inhibition constant (Ki) on Carbonic anhydrase 2 and on Carbonic anhydrase 1 were 435 nM and 487 nM, respectively.
The matching figures for `CCOC(=O)/C(=N\Nc1cccc(-n2nc(C(=O)Nc3nnc(S(N)(=O)=O)s3)c(C(=O)Nc3nnc(S(N)(=O)=O)s3)c2-c2ccccc2)c1)C(C)=O` [Ethyl 3-oxo-2-(2-(3-(5-phenyl-3,4-bis((5-sulfamoyl-1,3,4-thiadiazol-2-yl)carbamoyl)-1H-pyrazol-1-yl)phenyl)hydrazono)butanoate (7)]: 208 nM and 710 nM.
The matching figures for `CC1(C)CC(=O)C(=NNc2cccc(-n3nc(C(=O)Nc4nnc(S(N)(=O)=O)s4)c(C(=O)Nc4nnc(S(N)(=O)=O)s4)c3-c3ccccc3)c2)C(=O)C1` [1-(3-((2-Hydroxy-4,4-dimethyl-6-oxocyclohex-1-en-1-yl)diazenyl)phenyl)-5-phenyl-N3,N4-bis(5-sulfamoyl-1,3,4-thiadiazol-2-yl)-1H-pyrazole-3,4-dicarboxamide (14)]: 288 nM and 787 nM.
For `NS(=O)(=O)c1nnc(NC(=O)c2nn(-c3cccc(NN=C(C(=O)c4ccccc4)C(=O)c4ccccc4)c3)c(-c3ccccc3)c2C(=O)Nc2nnc(S(N)(=O)=O)s2)s1` [1-(3-(2-(1,3-Dioxo-1,3-diphenylpropan-2-ylidene)hydrazinyl)phenyl)-5-phenyl-N3,N4-bis(5-sulfamoyl-1,3,4-thiadiazol-2-yl)-1Hpyrazole-3,4-dicarboxamide (8)], the results for the inhibitory constant (Ki) on Carbonic anhydrase 2 and on Carbonic anhydrase 1 were 878 nM and 4000 nM, respectively.
The matching figures for `CCCC(=O)/C(=N/Nc1cccc(-n2nc(C(=O)Nc3nnc(S(N)(=O)=O)s3)c(C(=O)Nc3nnc(S(N)(=O)=O)s3)c2-c2ccccc2)c1)C(=O)OCC` [Ethyl 3-oxo-2-(2-(3-(5-phenyl-3,4-bis((5-sulfamoyl-1,3,4-thiadiazol-2-yl)carbamoyl)-1H-pyrazol-1-yl)phenyl)hydrazono)hexanoate (11)]: 84 nM and 246 nM.
For `COC(=O)C(/N=N/c1cccc(-n2nc(C(=O)Nc3nnc(S(N)(=O)=O)s3)c(C(=O)Nc3nnc(S(N)(=O)=O)s3)c2-c2ccccc2)c1)S(=O)(=O)c1ccccc1` (centres undefined) [Methyl 2-((3-(5-phenyl-3,4-bis((5-sulfamoyl-1,3,4-thiadiazol-2-yl)carbamoyl)-1H-pyrazol-1-yl)phenyl)diazenyl)-2-(phenylsulfonyl)acetate (15)], the figures for the Ki at Carbonic anhydrase 2 and on Carbonic anhydrase 1 were 92 nM and 318 nM, respectively.
Take `NS(=O)(=O)c1nnc(NC(=O)c2nn(-c3cccc(/N=N/c4c(O)ccc5ccccc45)c3)c(-c3ccccc3)c2C(=O)Nc2nnc(S(N)(=O)=O)s2)s1` [1-(3-((2-Hydroxynaphthalen-1-yl)diazenyl)phenyl)-5-phenyl-N3,N4-bis(5-sulfamoyl-1,3,4-thiadiazol-2-yl)-1H-pyrazole-3,4-dicarboxamide (4)]: the Ki at Carbonic anhydrase 2 amounted to 411 nM; on Carbonic anhydrase 1, 1660 nM.
